Experimental data taken from patent publication US20050209278A1, “Piperidinyl- and piperazinyl-sulfonylmethyl hydroxamic acids and their use as protease inhibitors” (priority 2002, published 2005).
Structures can show the parent of a compound that is named as a salt.

target: T1, MMP-9 (Homo sapiens, UniProt P14780); assay: In vitro MMP inhibition, IC50 determination (fluorogenic substrate I); type: biochemical; details: values in parenthesis; 4 μM substrate I; room temperature
T1 construct: made in house; host or cells: MMP-9-transfected HT1080 cells (spent media)
T1 sequence (P14780 107-707 limits assumed): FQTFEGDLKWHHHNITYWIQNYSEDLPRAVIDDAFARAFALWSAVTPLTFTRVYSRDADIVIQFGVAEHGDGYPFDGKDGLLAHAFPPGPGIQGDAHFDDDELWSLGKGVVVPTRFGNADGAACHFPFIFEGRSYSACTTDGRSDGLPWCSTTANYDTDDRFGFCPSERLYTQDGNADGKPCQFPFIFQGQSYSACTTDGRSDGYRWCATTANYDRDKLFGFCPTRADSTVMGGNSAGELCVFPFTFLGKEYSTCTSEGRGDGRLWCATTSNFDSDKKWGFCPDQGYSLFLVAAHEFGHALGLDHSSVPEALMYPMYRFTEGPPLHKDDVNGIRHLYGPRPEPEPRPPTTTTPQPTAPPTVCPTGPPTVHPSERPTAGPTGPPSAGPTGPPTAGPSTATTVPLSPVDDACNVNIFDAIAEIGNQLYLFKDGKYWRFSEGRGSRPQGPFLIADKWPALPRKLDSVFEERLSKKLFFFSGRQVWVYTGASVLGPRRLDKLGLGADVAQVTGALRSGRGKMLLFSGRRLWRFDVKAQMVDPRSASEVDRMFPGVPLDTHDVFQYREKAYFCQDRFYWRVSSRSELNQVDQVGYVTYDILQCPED
Protocol: Several hydroxamic acids and salts thereof were analyzed in in vitro assays to determine their ability to inhibit the MMP cleavage of peptide substrates. […] and IC50 constants were calculated from the assayed hydroxamic acid-MMP interactions. Human recombinant MMP-1, MMP-2, MMP-9, MMP-13, and MMP-14 were used in this assay. All enzymes were prepared in Assignee's laboratories following usual laboratory procedures. Protocols for the preparation and use of these enzymes are available in the scientific literature. See, e.g., Enzyme Nomenclature (Academic Press, San Diego, Calif., 1992) (and the citations therein). See also, Freije et al., “Molecular cloning and expression of collagenase-3, a novel human matrix metalloproteinase produced by breast carcinomas,” J Biol. Chem., 269(24), 16766-16773 (1994). The MMP-9 proenzyme was purified by gelatin Sepharose chromatography from spent media of MMP-9-transfected HT1080 cells provided by Dr. Howard Welgus of Washington University (St. Louis, Mo.). All MMPs were activated using 4-aminophenylmercuric acetate (“APMA”, Sigma Chemical, St. Louis, Mo.) or trypsin. MMP-9 also was activated using human recombinant MMP-3 (purified in Assignee's laboratory following standard cloning and purification techniques). […] Substrate (I) was purchased from Baychem (Redwood City, Calif.), and substrate II was prepared Assignee's laboratory. Substrate I was used in the IC50 determination assays, while substrate II was used in the Ki determination assays. In the absence of MMP inhibitory activity, either substrate is cleaved at the Gly-Leu peptide bond. […] The stock solutions of the assayed hydroxamic acids (or salts thereof) were prepared in 1% dimethyl sulfoxide (DMSO). […] The experiment controls contained the same amount of Buffer A/DMSO as the assayed sample, but contained no hydroxamic acid (or salt thereof). The assays from which the IC50 determinations were made were performed as follows. […] Louis, Mo.). The assayed hydroxamic acid samples were incubated in MicrofluorTM White Plates (Dynatech, Chantilly, Va.) and analyzed on a Perkin Elmer […] plate reader (Norwalk, Conn.). The excitation wavelength was 328 nm, and the emission wavelength-415 nm. […] As stated in the previous paragraph, samples containing varying concentrations of the same assayed hydroxamic acid were prepared. Inhibition was measured as a reduction in fluorescent intensity as a function of MMP inhibitor concentration. […] All values in Table 2 are given in nM units. The IC50 measurements are in parenthesis.

IC50 | Compound
< 0.1 nM | CCCCc1ccc(N2CCN(S(=O)(=O)C3(C(=O)NO)CCN(CCOC)CC3)CC2)cc1 [Example 5, 4-{[4-(4-butylphenyl)piperazin-1-yl]sulfonyl}-N-hydroxy-1-(2-methoxyethyl)piperidine-4-carboxamide Dihydrochloride]
0.3 nM | O=C(NO)C1(S(=O)(=O)N2CCN(c3ccc(OCC4CC4)c(F)c3)CC2)CCN(C2CC2)CC1 [Example 10, 1-cyclopropyl-4-[[4-[4-(cyclopropylmethoxy)-3-fluorophenyl]-1-piperazinyl]sulfonyl]-N-hydroxy-4-piperidinecarboxamide, dihydrochloride]
0.2 nM | CCCCCc1ccc(N2CCN(S(=O)(=O)C3(C(=O)NO)CCN(CCOC)CC3)CC2)cc1 [Example 6, N-Hydroxy-1-(2-methoxyethyl)-4-{[4-(4-pentylphenyl)piperazin-1-yl]sulfonyl}piperidine-4-carboxamide Dihydrochloride]
0.3 nM | CCCCCc1ccc(C2CCN(S(=O)(=O)C3(C(=O)NO)CCN(CCOC)CC3)CC2)cc1 [Example 15, N-hydroxy-1-(2-methoxyethyl)-4-{[4-(4-pentylpheyl)piperidin-1-yl]sulfonyl}piperidine-4-carboxamide Hydrochloride]

Compound | IC50
CCCCOc1ccc(N2CCN(S(=O)(=O)C3(C(=O)NO)CCN(CCOC)CC3)CC2)cc1F [Example 11, 4-[[4-(4-butoxy-3-fluorophenyl)-1-piperazinyl]sulfonyl]-N-hydroxy-1-(2-methoxyethyl)-4-piperidinecarboxamide, Dihydrochloride] | 2.3 nM
